The source of these data is paper PMC8615975, “Design of α/β-Hybrid Peptide Ligands of α4β1 Integrin Equipped with a Linkable Side Chain for Chemoselective Biofunctionalization of Microstructured Materials” (Biomedicines, 2021).

*1 amine or outer side, *2 acyl side, *3 side chain or, on linkers, in order; H or OH if unused. Where a SMILES comes first, the peptide text is derived from it. [ ]: non-standard residue; d: D form. The star is where a group is joined. X1 = O=C(Cc1ccc(N[*:1])cc1)[*:2]; NH(2-Me-phenyl) = Cc1ccccc1N*; CO = O=C([*:1])[*:2] Bounds are passed on as bounds.

Data set [1] concerns the target T1, α4β1 integrin (Homo sapiens, UniProt P05556+P13612).
T1 construct: Jurkat E6.1 cells (expressing α4β1) were maintained as a stationary suspension culture; host or cells: Jurkat E6.1
The data set is described as follows: Inhibition of α4β1 integrin-mediated Jurkat cell adhesion to FN. Conditions: for ability to modulate α4β1 integrin-mediated cell adhesion (in words): Jurkat cell adhesion to FN; for IC50: Jurkat cell adhesion to plates coated with FN (10 μg/mL), mean ± SD, three experiments in quadruplicate. Type of data set: cell-based. On the procedure: All cell lines were purchased from the ATCC (Rockville, MD, USA). Jurkat E6.1 cells (expressing α4β1) were maintained as a stationary suspension culture in RPMI-1640 (Life Technologies, Carlsbad, CA, USA) supplemented with 2 mM glutamine and 10% FBS (fetal bovine serum). HEK293 cells were routinely cultured in EMEM (Lonza, Basel, Switzerland) enriched with 10% FBS, L-glutamine and nonessential amino acids. Cells were kept at 37 °C under a 5% CO2 humidified atmosphere.
The adhesion assays were performed as previously described. Briefly, black 96-well plates (Corning Costar, Celbio, Milan, Italy) were coated with FN (10 μg/mL). Cells were counted, stained with CellTracker green CMFDA (12.5 μM, 30 min at 37 °C, Life Technologies), and after three washes with 1% BSA (bovine serum albumin) in HBSS (Life Technologies) were preincubated with increasing concentrations of the new peptide ligands (10^−10–10^−4 M) or with the vehicle (methanol) for 30 min at 37 °C. Afterwards, cells were plated (500,000/well) on coated wells and incubated for 30 min at 37 °C. After three washes, adhered cells were lysed with 0.5% Triton X-100 in PBS (30 min at 4 °C) and fluorescence was measured (Ex485 nm/Em535 nm) in an EnSpire Multimode Plate Reader (PerkinElmer, Waltham, MA, USA).
The number of adherent cells was obtained by comparison with a standard curve prepared in the same plate using diverse concentrations of cells. Experiments were carried out in quadruplicate and repeated at least three times. Data analysis and IC50 values were calculated using GraphPad Prism 6.0 (GraphPad Software, San Diego, CA, USA).

Data set [2] in a line: Enzymatic stability in mouse serum. The format is in vitro ADME. Conditions: 37 °C, HPLC; for amount of intact peptide: after 3 h. As to the method: Incubations were carried out at 37 °C. Aliquots of 20 µL were sampled over 180 min from the mixtures and the samples were diluted with 90 µL of glacial ACN for precipitating proteins. The mixtures were diluted with 90 µL of 0.5% AcOH and centrifuged (13,000× g, 15 min). The supernatants were collected and the amount of intact peptides was determined by RP HPLC. The experiments were performed in triplicate and repeated three times.

Another data set deals with isolated α4β1 integrin. More on the design: method as in PMID 30051467. To be noted: read-out: IC50, affinity for the isolated α4β1 integrin; cited from earlier work.
In data set [3] the test system is α4β1 integrin. More on the design: method as in PMID 30051467. Conditions: VCAM-1; read-out: IC50, adhesion of α4β1 integrin-expressing cells to VCAM-1; cited from earlier work.
Details of data set [4]: method as in PMID 30051467. Conditions: incubation in mouse serum; cited from earlier work.
Details of data set [5]: method as in PMID 17523052, PMID 11682211. To be noted: heparinized blood, plasma and rat liver, lung and intestinal homogenates; cited from earlier work.

T1 sequence (P13612 34-1032): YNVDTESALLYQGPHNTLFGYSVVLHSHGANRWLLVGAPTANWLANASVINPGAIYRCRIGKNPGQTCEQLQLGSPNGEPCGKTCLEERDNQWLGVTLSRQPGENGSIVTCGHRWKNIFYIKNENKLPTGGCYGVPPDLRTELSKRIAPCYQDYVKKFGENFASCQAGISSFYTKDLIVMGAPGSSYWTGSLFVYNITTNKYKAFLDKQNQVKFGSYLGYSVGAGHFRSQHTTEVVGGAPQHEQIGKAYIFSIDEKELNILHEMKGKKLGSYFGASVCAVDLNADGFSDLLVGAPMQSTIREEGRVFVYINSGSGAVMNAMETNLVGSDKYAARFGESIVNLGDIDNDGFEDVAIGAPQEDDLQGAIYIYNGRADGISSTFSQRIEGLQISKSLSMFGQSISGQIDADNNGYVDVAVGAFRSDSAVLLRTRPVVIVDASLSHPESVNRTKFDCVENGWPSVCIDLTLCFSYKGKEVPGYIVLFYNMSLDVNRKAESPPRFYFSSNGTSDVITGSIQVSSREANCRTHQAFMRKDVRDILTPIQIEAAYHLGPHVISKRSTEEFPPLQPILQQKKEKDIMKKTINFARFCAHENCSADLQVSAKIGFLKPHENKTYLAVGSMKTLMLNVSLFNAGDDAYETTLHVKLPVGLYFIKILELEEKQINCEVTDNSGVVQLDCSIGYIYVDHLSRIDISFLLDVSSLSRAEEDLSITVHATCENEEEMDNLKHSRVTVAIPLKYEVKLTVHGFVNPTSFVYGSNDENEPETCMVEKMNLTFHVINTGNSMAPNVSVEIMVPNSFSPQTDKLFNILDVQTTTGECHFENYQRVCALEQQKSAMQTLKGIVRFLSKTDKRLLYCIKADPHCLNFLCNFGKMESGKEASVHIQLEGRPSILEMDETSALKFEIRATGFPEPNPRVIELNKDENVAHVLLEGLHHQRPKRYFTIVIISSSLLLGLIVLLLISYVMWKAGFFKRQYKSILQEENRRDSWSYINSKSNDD
T1 sequence (P05556 21-798): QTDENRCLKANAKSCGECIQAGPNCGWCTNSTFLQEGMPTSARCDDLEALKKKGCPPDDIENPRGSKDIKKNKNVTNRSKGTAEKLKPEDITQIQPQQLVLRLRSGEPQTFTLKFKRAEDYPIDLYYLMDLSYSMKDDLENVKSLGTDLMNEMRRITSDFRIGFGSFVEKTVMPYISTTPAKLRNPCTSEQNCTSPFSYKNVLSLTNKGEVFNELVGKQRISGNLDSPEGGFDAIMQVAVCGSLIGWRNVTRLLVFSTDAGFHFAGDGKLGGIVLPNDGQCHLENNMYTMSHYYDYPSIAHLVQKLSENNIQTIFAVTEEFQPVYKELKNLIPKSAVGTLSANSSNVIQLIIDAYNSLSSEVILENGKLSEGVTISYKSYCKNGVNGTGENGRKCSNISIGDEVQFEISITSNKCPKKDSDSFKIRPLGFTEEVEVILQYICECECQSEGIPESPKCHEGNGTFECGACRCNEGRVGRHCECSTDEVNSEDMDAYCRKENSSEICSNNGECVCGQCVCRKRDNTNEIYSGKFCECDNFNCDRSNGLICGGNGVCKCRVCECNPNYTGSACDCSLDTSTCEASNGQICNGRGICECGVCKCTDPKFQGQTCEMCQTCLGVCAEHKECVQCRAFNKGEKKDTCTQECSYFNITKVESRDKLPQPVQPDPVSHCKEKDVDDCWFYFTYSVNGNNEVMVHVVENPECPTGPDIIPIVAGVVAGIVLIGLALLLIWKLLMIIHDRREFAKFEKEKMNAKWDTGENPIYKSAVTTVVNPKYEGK

With `CC(=O)N[C@H](CNC(=O)Cc1ccc(NC(=O)Nc2ccccc2C)cc1)C(=O)NCC(=O)O` [Compound 14, MPUPA-Dap(Ac)-Gly-OH], on α4β1 integrin [1], the “ability to modulate α4β1 integrin-mediated cell adhesion (in words)” value was “inactive” and the 50% inhibitory concentration (IC50) was greater than 5000 nM. As to `Cc1ccccc1NC(=O)Nc1ccc(CC(=O)NC[C@@H](C)C(=O)NCC(=O)O)cc1` [Compound 10, MPUPA-β^2-homoAla-Gly-OH], at α4β1 integrin [1], the “ability to modulate α4β1 integrin-mediated cell adhesion (in words)” value is on record as “not able to modulate α4β1 integrin-mediated cell adhesion to a significant extent” and the IC50 is greater than 5000 nM. With `CCCNC(=O)[C@@H](CC(=O)NCC(=O)O)NC(=O)Cc1ccc(NC(=O)Nc2ccccc2C)cc1` [Compound 12, MPUPA-(R)-isoAsp(NHPr)-Gly-OH], the “amount of intact peptide” value in data set [2] is listed as “around 80%”. At α4β1 integrin [1], the midpoint of inhibition, the IC50, lay at 9.8 ± 2.1 nM. With `Cc1ccccc1NC(=O)Nc1ccc(CC(=O)N[C@H](C)CC(=O)NCC(=O)O)cc1` [Compound 8, MPUPA-β^3-homoAla-Gly-OH], on α4β1 integrin [1], the IC50 was greater than 5000 nM. Take `Cc1ccccc1NC(=O)Nc1ccc(CC(=O)NC[C@H](C)C(=O)NCC(=O)O)cc1` [Compound 9, MPUPA-β^2-homoAla-Gly-OH]: at α4β1 integrin [1], the “ability to modulate α4β1 integrin-mediated cell adhesion (in words)” value is “not able to modulate α4β1 integrin-mediated cell adhesion to a significant extent” and the IC50 was greater than 5000 nM. `Cc1ccccc1NC(=O)Nc1ccc(CC(=O)N2CC[C@H](C(=O)NCC(=O)O)C2)cc1` [Compound 6]: the IC50 in the data set on isolated α4β1 integrin was 8.3 nM; in the data set on α4β1 integrin [3], 5.04 nM. For the same compound, the “enzymatic stability (in words)” value in data set [4] is listed as “good enzymatic stability”. `CCCNC(=O)[C@H](CC(=O)NCC(=O)O)NC(=O)Cc1ccc(NC(=O)Nc2ccccc2C)cc1` [Compound 11, MPUPA-isoAsp(NHPr)-Gly-OH] had an IC50 against α4β1 integrin [1] greater than 5000 nM. `Cc1ccccc1NC(=O)Nc1ccc(CC(=O)N[C@@H](C)CC(=O)NCC(=O)O)cc1` [Compound 7, MPUPA-β^3-homoAla-Gly-OH]: 4060 ± 780 nM corresponded to half-maximal inhibition against α4β1 integrin [1] (IC50). In the case of `Cc1ccccc1NC(=O)Nc1ccc(CC(=O)N[C@@H](CC(C)C)C(=O)N[C@@H](CC(=O)O)C(=O)N[C@H](C(=O)N2CCC[C@H]2C(=O)O)C(C)C)cc1` [BIO1211, MPUPA-Leu-Asp-Val-Pro-OH, reference compound] ({NH(2-Me-phenyl)-CO}-[X1]LDVP-OH), the “initial amount still present” value in data set [2] (after 1 h) is recorded as “about 10%”. For the same compound, the “stability in physiological conditions (in words)” value in data set [5] is “poor stability”.

As to `CC(=O)N[C@@H](CNC(=O)Cc1ccc(NC(=O)Nc2ccccc2C)cc1)C(=O)NCC(=O)O` [Compound 13, MPUPA-(S)-Dap(Ac)-Gly-OH], the “amount of intact peptide” value in data set [2] is roughly 91%. Also, at α4β1 integrin [1], the “ability to modulate α4β1 integrin-mediated cell adhesion (in words)” value is “submicromolar range” and the midpoint of inhibition, the IC50, lay at 236 ± 47 nM.

As usually defined, the IC50 is the concentration at which inhibition is half-maximal.
